Values after ≈ are worked out from the molar mass of the structure shown. Like-named read-outs stand apart in the source and are kept apart here.
How the values were obtained:
Type in all cases: cell-based
[1] = system: Enterococcus faecalis (EFA); test: MIC, two-fold agar dilution (CLSI), clinical isolates
Summary of the method: (§1)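 Test samples were assayed by the CLSI-recommended two-fold agar dilution method, and the minimum inhibitory concentration against each tested strain was determined.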

[2] = system: Enterococcus faecium (EFM); test: as above
Summary of the method: as §1

[3] = system: Escherichia coli (including ESBLs, non-ESBLs); test: as above
Summary of the method: as §1

[4] = system: Moraxella catarrhalis (BCA); test: as above; settings: for MIC: Moraxella catarrhalis
Summary of the method: as §1

[5] = system: Streptococcus pneoumoniae (SPN); test: as above
Summary of the method: as §1

[6] = system: methicillin-resistant Staphylococcus aureus (MRSA); test: as above
Summary of the method: as §1

[7] = system: methicillin-resistant Staphylococcus epidermidis (MRSE); test: as above
Summary of the method: as §1

[8] = system: methicillin-sensitive Staphylococcus aureus (MSSA); test: as above
Summary of the method: as §1

[9] = system: methicillin-sensitive Staphylococcus epidermidis (MSSE); test: as above
Summary of the method: as §1

[10] = system: HCT-116 colorectal cancer cell line; test: CCK-8 proliferation inhibition; settings: Homo sapiens, HCT-116, 72 h, concentration of 30 μM, 72 hours, CCK-8
Summary of the method: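 Growth inhibition is read by CCK-8 (1:10 dilution) after 72 h of compound exposure. HCT-116 cells grow in McCoy's 5A containing 10% newborn bovine serum at 2000 cells/well, with 1‰ DMSO as vehicle control.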

[11] = system: A549 lung cancer cell line; test: CCK-8 proliferation inhibition; settings: Homo sapiens, A549, 72 h, concentration of 30 μM
Summary of the method: (§2)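 Plating at 2000 cells/well, then incubation overnight at 37° C. Next, a range of compound concentrations for 72 hours (control 1‰ DMSO). Finally, medium decanted and CCK-8 diluted 1:10 added.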

[12] = system: BEL-7402 liver cancer cell line; test: CCK-8 proliferation inhibition; settings: concentration of 30 μM
Summary of the method: as §2

[13] = system: MGC-803 gastric cancer cell line; test: CCK-8 proliferation inhibition; settings: Homo sapiens, MGC-803, 72 h, concentration of 30 μM
Summary of the method: as §2

[14] = MIC in vitro anti-bacterial experiments, Gram-positive bacteria; settings: lowest MIC reached; read-out: minimum inhibitory concentration against Gram-positive bacteria
From the text: 1. The invention adopts the two-fold agar dilution method recommended by the operating procedure of antimicrobial susceptibility testing set by American Clinical and Laboratory Standards Institute (CLSI) to determine the Minimum Inhibitory Concentration (MIC) of the test samples against the tested strains.

Cc1csc(NC(=O)[C@@H]2CC3(CC3)CN2C(=O)[C@H](CC2CCCC2)CN(O)C=O)n1 [Example 33]
MIC (anti-bacterial activity) ([1]; strain EFA 15-1): 1 µg/mL (≈ 2.3 µM) | MIC (anti-bacterial activity) ([1]; strain EFA 15-2): 1 µg/mL (≈ 2.3 µM) | MIC (anti-bacterial activity) ([1]; strain EFA 15-3): 1 µg/mL (≈ 2.3 µM) | MIC (anti-bacterial activity) ([1]; strain EFA 15-4): 1 µg/mL (≈ 2.3 µM) | MIC (anti-bacterial activity) ([1]; strain EFA 15-5): 1 µg/mL (≈ 2.3 µM) | MIC (anti-bacterial activity) ([1]; strain EFA 15-6): 1 µg/mL (≈ 2.3 µM) | MIC (anti-bacterial activity) ([1]; strain EFA 15-9): 1 µg/mL (≈ 2.3 µM) | MIC (anti-bacterial activity) ([2]; strain EFM 15-1): 0.5 µg/mL (≈ 1.15 µM) | MIC (anti-bacterial activity) ([2]; strain EFM 15-2): 0.5 µg/mL (≈ 1.15 µM) | MIC (anti-bacterial activity) ([2]; strain EFM 15-3): 0.125 µg/mL (≈ 0.288 µM) | MIC (anti-bacterial activity) ([2]; strain EFM 15-4): 0.5 µg/mL (≈ 1.15 µM) | MIC (anti-bacterial activity) ([2]; strain EFM 15-5): 0.5 µg/mL (≈ 1.15 µM) | MIC (anti-bacterial activity) ([2]; strain EFM 15-6): 0.5 µg/mL (≈ 1.15 µM) | MIC (anti-bacterial activity) ([3]; strain ECO+ 15-1): > 32 µg/mL | MIC (anti-bacterial activity) ([3]; strain ECO+ 15-2): > 32 µg/mL | MIC (anti-bacterial activity) ([3]; strain ECO+ 15-3): > 32 µg/mL | MIC (anti-bacterial activity) ([3]; strain ECO+ 15-4): > 32 µg/mL | MIC (anti-bacterial activity) ([3]; strain ECO− 15-1): > 32 µg/mL | MIC (anti-bacterial activity) ([3]; strain ECO− 15-2): > 32 µg/mL | MIC (anti-bacterial activity) ([3]; strain ECO− 15-3): > 32 µg/mL | MIC (anti-bacterial activity) ([3]; strain ECO− 15-4): > 32 µg/mL | MIC ([4]; 7 clinical isolates, range over strains, read-out: Moraxella catarrhalis (n = 7) MIC): 0.06 to 0.25 µg/mL (≈ 0.138 to 0.575 µM) | MIC ([4]; lowest MIC reached, read-out: minimum inhibitory concentration against Moraxella catarrhalis, as low as): ≥ 0.06 µg/mL | Anti-bacterial activity (MIC), strain BCA 14-10 ([4]; clinical isolate BCA 14-10): 0.06 µg/mL | MIC (anti-bacterial activity) ([4]; strain BCA 14-1): 0.25 µg/mL (≈ 0.575 µM) | MIC (anti-bacterial activity) ([4]; strain BCA 14-4): 0.25 µg/mL (≈ 0.575 µM) | MIC (anti-bacterial activity) ([4]; strain BCA 14-5): 0.06 µg/mL (≈ 0.138 µM) | MIC (anti-bacterial activity) ([4]; strain BCA 14-6): 0.06 µg/mL (≈ 0.138 µM) | MIC (anti-bacterial activity) ([4]; strain BCA 14-7): 0.03 µg/mL (≈ 0.069 µM) | MIC (anti-bacterial activity) ([4]; strain BCA 14-8): 0.125 µg/mL (≈ 0.288 µM) | MIC (anti-bacterial activity) ([5]; strain SPN 16-2): 0.06 µg/mL (≈ 0.138 µM) | MIC (anti-bacterial activity) ([5]; strain SPN 16-4): 1 µg/mL (≈ 2.3 µM) | MIC (anti-bacterial activity) ([6]; strain MRSA 15-1): 0.03 µg/mL (≈ 0.069 µM) | MIC (anti-bacterial activity) ([6]; strain MRSA 15-2): 0.06 µg/mL (≈ 0.138 µM) | MIC (anti-bacterial activity) ([6]; strain MRSA 15-3): < 0.008 µg/mL | MIC (anti-bacterial activity) ([6]; strain MRSA 15-4): 0.06 µg/mL (≈ 0.138 µM) | MIC (anti-bacterial activity) ([7]; strain MRSE 15-1): 0.015 µg/mL (≈ 0.0345 µM) | MIC (anti-bacterial activity) ([7]; strain MRSE 15-2): 0.125 µg/mL (≈ 0.288 µM) | MIC (anti-bacterial activity) ([7]; strain MRSE 15-3): 0.125 µg/mL (≈ 0.288 µM) | MIC (anti-bacterial activity) ([7]; strain MRSE 15-7): 0.125 µg/mL (≈ 0.288 µM) | MIC (anti-bacterial activity) ([8]; strain MSSA 15-3): 0.06 µg/mL (≈ 0.138 µM) | MIC (anti-bacterial activity) ([8]; strain MSSA 15-4): 0.03 µg/mL (≈ 0.069 µM) | MIC (anti-bacterial activity) ([8]; strain MSSA 15-5): 0.03 µg/mL (≈ 0.069 µM) | MIC (anti-bacterial activity) ([8]; strain MSSA 15-6): 0.06 µg/mL (≈ 0.138 µM) | MIC (anti-bacterial activity) ([9]; strain MSSE 15-3): 0.125 µg/mL (≈ 0.288 µM) | MIC (anti-bacterial activity) ([9]; strain MSSE 15-4): 0.125 µg/mL (≈ 0.288 µM) | MIC (anti-bacterial activity) ([9]; strain MSSE 15-5): 0.125 µg/mL (≈ 0.288 µM) | MIC (anti-bacterial activity) ([9]; strain MSSE 15-6): 0.03 µg/mL (≈ 0.069 µM) | inhibition at 30 µM ([10]; Table 5, read-out: Inhibition of proliferation, Colorectal cancer HCT116): ≥ 30% | inhibition at 30 µM ([10]; read-out: HCT116 inhibition rate/%): 31% | inhibition at 30 µM [11]: 20% | inhibition at 30 µM ([12]; Homo sapiens, Bel-7402, 72 h): > 50% | Inhibition of proliferation, Liver cancer BEL-7402 ([12]; 72 hours, 30 µM): 57% | inhibition at 30 µM [13]: 27% | MIC [14]: < 0.008 µg/mL
